The target of assay [1] is Serine/threonine-protein kinase 10 (Homo sapiens, UniProt O94804).
Assay [2] addresses Mitogen-activated protein kinase kinase kinase kinase 4 (Homo sapiens, UniProt O95819).
The target in assay [3] is Protein-tyrosine kinase 6 (Homo sapiens, UniProt Q13882).
The target in a further assay is Wee1-like protein kinase (Homo sapiens, UniProt P30291).
Assay [4] addresses T1, Serine/threonine-protein kinase ULK1 (Homo sapiens, UniProt O75385).
T1 sequence (O75385 whole entry): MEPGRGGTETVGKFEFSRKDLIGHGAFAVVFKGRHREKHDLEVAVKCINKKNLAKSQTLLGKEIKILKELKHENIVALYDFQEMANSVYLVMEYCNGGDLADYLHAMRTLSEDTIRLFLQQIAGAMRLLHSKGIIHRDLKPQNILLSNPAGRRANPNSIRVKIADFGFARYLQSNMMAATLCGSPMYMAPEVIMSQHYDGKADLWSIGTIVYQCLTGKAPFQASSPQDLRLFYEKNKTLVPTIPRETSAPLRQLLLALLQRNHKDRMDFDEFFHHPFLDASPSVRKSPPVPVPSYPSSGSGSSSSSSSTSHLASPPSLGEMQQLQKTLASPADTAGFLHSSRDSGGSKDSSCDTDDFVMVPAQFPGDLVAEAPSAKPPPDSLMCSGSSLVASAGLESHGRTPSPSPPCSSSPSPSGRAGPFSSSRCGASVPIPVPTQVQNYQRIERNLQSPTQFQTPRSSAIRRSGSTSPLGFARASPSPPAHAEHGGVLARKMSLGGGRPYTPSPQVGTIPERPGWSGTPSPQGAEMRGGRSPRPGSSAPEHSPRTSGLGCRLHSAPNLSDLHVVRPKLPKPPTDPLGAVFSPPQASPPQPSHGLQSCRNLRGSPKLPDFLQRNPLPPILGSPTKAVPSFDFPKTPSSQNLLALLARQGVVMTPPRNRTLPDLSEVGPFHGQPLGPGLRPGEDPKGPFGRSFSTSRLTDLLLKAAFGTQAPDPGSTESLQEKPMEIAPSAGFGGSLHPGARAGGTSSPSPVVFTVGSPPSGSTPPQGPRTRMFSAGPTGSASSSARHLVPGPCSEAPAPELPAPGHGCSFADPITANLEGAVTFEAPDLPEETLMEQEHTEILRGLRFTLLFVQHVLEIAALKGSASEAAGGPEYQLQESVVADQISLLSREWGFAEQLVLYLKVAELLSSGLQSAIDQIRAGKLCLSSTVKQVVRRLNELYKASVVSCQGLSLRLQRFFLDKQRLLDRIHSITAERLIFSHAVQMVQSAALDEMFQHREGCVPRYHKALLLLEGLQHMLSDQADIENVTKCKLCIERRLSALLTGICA

Assay [5] has as its target Cyclin-dependent kinase 3 (Homo sapiens, UniProt Q00526).
The target in the next assay is GTP-binding protein 4 (Homo sapiens, UniProt Q9BZE4).
Assay [6] has as its target Serine/threonine-protein kinase SIK2 (Homo sapiens, UniProt Q9H0K1).
Assay [7] addresses T2, Acyl-CoA dehydrogenase family member 11 (Homo sapiens, UniProt Q709F0).
T2 sequence (Q709F0 whole entry): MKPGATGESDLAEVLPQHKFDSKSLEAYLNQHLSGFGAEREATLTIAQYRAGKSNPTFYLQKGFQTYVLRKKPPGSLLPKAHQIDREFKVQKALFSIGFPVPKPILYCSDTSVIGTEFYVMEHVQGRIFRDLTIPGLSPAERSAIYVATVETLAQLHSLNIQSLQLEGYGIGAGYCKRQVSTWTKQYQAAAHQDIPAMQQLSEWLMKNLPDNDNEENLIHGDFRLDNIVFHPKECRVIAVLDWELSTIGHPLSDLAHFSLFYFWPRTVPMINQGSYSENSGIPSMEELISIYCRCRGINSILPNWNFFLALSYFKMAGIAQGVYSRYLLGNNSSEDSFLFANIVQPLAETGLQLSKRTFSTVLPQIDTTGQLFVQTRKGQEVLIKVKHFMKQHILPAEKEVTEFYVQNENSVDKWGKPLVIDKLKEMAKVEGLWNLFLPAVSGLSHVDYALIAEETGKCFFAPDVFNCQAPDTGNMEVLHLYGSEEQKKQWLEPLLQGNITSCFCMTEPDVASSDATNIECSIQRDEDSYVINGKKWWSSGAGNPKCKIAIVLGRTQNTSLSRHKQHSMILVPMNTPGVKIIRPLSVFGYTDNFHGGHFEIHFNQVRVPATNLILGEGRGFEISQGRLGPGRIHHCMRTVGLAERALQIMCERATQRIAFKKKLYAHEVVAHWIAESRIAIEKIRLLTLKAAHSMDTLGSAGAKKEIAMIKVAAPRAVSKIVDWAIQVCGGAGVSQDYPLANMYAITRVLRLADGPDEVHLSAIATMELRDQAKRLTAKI

The target in assay [8] is Bone morphogenetic protein receptor type-1B (Homo sapiens, UniProt O00238).
Bone morphogenetic protein receptor type-1B, sequence (O00238 whole entry): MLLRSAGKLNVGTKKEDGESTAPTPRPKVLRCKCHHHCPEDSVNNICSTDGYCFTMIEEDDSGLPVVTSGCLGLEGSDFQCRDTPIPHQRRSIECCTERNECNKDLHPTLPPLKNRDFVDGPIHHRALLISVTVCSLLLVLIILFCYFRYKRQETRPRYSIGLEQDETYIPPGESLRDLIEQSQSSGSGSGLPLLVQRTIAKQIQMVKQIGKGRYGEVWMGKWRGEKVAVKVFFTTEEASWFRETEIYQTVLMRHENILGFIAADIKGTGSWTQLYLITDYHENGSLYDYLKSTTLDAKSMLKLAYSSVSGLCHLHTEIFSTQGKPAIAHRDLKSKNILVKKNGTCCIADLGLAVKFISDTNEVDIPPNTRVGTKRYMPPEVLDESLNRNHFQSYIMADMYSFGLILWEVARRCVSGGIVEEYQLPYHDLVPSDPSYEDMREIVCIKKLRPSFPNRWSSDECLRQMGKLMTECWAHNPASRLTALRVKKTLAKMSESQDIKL
The target in assay [9] is Non-receptor tyrosine-protein kinase TYK2 (Homo sapiens, UniProt P29597).
Non-receptor tyrosine-protein kinase TYK2, sequence (P29597 whole entry): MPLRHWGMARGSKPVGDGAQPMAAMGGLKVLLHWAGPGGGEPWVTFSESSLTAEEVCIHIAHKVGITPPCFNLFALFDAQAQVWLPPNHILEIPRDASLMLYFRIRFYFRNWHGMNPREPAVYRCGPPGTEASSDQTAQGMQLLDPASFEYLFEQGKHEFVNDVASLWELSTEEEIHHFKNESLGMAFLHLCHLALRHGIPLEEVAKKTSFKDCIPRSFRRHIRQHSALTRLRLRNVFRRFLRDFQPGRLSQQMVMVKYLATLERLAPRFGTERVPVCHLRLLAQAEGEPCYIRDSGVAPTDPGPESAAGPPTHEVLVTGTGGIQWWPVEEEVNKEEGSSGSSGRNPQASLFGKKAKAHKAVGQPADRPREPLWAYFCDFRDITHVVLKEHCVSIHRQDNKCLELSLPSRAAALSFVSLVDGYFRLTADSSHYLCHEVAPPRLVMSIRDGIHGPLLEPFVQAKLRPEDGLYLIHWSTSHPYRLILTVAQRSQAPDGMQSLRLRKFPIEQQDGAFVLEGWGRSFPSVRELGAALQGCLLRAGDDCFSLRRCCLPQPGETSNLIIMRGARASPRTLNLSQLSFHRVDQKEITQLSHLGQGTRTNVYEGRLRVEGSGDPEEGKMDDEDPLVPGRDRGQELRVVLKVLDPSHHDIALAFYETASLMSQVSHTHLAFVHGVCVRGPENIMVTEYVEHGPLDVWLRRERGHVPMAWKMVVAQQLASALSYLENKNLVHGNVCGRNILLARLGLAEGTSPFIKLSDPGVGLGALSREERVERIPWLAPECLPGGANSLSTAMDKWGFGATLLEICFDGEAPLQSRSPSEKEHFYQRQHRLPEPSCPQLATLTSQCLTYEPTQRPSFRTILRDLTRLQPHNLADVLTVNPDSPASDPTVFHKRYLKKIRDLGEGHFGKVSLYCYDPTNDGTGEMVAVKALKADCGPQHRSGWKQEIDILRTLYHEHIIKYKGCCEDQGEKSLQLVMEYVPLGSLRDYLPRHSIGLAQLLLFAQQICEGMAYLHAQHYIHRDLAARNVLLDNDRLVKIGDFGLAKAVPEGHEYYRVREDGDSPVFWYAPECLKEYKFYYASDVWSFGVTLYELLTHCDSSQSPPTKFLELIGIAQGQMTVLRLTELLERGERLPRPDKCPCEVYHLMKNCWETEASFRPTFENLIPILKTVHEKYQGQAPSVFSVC
For a further assay, the target named is T3, ADP/ATP translocase 2 (Homo sapiens, UniProt P05141).
T3 sequence (P05141 whole entry): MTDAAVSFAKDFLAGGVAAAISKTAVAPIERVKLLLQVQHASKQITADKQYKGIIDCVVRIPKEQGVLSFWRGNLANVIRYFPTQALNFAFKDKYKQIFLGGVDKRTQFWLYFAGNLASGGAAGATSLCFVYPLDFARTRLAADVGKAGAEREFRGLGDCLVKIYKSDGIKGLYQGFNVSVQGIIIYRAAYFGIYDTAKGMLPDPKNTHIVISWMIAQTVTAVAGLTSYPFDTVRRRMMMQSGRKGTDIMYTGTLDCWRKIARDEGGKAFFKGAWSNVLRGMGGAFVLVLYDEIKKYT

Assay [10] concerns the target Mitogen-activated protein kinase 10 (Homo sapiens, UniProt P53779).

Active and inactive are the calls of the source. Rule as the data show it, for most assays here: actives have a measured Kd and inactives only a lower limit.
Also: in the data inactive means no Kd found up to 30 µM.

Mitogen-activated protein kinase 10, sequence (P53779 whole entry): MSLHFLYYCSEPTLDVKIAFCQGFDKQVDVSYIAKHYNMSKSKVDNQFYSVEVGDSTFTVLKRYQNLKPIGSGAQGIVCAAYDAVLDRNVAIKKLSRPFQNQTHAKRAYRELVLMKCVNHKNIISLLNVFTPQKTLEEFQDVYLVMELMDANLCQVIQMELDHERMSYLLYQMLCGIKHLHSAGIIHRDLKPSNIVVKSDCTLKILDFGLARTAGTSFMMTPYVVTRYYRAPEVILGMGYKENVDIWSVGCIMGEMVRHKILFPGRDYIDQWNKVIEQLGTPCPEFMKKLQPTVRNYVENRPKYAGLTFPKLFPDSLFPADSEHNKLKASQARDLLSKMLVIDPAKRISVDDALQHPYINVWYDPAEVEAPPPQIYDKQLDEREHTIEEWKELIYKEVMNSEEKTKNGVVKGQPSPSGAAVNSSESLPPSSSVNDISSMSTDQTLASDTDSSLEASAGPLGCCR
Serine/threonine-protein kinase SIK2, sequence (Q9H0K1 whole entry): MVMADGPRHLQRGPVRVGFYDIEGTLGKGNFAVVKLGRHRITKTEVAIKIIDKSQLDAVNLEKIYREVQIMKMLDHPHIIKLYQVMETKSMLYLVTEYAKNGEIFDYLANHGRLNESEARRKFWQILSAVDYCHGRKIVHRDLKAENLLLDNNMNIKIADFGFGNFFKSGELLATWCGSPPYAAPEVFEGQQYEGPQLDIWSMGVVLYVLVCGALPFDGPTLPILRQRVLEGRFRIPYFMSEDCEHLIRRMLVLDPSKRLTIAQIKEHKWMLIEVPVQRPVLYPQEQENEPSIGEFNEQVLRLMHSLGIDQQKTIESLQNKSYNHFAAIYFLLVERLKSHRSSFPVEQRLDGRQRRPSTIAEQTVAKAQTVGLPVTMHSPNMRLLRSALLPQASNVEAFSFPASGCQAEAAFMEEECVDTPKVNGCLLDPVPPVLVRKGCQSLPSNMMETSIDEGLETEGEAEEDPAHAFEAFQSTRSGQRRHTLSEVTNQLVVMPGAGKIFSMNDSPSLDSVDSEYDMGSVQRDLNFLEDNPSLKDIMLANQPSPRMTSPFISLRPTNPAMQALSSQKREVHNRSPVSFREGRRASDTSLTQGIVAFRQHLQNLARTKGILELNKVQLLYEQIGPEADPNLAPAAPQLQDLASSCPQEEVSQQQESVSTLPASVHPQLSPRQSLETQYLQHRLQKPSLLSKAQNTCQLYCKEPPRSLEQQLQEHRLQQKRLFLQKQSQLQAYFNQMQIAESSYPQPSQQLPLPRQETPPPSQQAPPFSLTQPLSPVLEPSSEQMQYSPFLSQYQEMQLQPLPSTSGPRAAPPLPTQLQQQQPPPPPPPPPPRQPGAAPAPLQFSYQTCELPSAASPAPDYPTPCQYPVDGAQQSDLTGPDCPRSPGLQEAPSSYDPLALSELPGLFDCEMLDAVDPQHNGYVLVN
Protein-tyrosine kinase 6, sequence (Q13882 whole entry): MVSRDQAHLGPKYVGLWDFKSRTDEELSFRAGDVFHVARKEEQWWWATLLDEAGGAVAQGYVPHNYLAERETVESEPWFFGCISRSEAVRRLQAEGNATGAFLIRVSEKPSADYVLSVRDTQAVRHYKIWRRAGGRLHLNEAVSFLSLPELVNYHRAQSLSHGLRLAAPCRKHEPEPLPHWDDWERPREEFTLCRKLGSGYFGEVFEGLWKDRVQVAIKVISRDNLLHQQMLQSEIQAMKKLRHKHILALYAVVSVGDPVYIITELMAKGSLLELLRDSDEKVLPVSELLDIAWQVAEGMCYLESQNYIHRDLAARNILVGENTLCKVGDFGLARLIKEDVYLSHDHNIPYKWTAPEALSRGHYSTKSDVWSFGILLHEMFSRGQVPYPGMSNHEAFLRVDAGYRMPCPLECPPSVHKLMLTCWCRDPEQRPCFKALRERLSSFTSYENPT
Cyclin-dependent kinase 3, sequence (Q00526 whole entry): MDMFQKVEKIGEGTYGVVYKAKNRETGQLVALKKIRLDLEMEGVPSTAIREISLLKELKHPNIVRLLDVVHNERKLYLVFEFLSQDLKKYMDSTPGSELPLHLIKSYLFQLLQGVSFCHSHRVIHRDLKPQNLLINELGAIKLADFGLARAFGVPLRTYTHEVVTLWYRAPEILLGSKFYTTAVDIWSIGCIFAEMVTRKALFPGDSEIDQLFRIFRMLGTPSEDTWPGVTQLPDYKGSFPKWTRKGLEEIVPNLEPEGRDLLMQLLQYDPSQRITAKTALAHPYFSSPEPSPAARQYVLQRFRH
Serine/threonine-protein kinase 10, sequence (O94804 whole entry): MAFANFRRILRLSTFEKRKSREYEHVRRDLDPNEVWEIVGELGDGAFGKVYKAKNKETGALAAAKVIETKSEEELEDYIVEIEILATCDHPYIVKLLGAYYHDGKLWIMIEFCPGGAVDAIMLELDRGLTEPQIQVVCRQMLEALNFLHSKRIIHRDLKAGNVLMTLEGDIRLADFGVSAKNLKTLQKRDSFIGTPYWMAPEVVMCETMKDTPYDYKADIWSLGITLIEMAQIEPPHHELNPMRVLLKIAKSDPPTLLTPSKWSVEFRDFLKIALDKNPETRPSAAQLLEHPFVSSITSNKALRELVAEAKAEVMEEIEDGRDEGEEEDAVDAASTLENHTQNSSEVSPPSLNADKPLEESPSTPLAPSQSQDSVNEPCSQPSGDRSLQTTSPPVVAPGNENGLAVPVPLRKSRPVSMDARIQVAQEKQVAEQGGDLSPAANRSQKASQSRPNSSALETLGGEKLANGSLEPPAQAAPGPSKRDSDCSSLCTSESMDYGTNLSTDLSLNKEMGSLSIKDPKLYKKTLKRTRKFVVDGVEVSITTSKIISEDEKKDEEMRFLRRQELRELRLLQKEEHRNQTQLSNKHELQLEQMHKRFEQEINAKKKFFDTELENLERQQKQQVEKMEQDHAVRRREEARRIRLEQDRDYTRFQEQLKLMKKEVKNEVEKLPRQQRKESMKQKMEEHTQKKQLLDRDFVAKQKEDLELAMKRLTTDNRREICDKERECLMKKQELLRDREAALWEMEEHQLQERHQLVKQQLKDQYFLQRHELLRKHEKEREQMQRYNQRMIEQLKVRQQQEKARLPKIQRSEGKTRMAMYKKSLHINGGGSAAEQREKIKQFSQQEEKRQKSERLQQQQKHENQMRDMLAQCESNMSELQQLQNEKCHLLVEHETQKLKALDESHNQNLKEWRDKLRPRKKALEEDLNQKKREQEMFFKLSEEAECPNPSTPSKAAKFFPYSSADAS

On to `COc1cc(CCc2cc(NC(=O)c3ccc(N4C[C@@H](C)N[C@@H](C)C4)cc3)n[nH]2)cc(OC)c1` [AZD-4547], for which the Kd (in assay [1]; in assay [2]; in assay [3]; at Wee1-like protein kinase; in assay [4]; in assay [5]) was > 30 µM (inactive) in each case. For the same molecule, the Kd (at GTP-binding protein 4; in assay [6]; in assay [7]; in assay [8]; in assay [9]; at ADP/ATP translocase 2) was > 30 µM (inactive) each time. Also, the Kd in [10] is > 30 µM (inactive).

With `N[C@@H]1CCCN(c2c(/C=C3\SC(=O)NC3=O)cccc2-c2ccccc2)C1`, the Kd (in [1]; in assay [2]; in assay [3]; at Wee1-like protein kinase; in assay [4]; in assay [5]) was > 30 µM (inactive) in each case. Moreover, the Kd (on GTP-binding protein 4; in [6]; in [7]; in assay [8]; in assay [9]; at ADP/ATP translocase 2) was > 30 µM (inactive) in each case. Further, the Kd in [10] was > 30 µM (inactive).

In the case of `CCN1CCN(Cc2ccc(-c3cc4c(N[C@H](C)c5ccccc5)ncnc4[nH]3)cc2)CC1` [AEE-788], the Kd is 42.6 µM (active) in assay [1]; 7.98 µM (active) in assay [2]; > 30 µM (inactive) in [3]; 65.2 µM (active) on Wee1-like protein kinase; > 30 µM (inactive) in [4]; > 30 µM (inactive) in [5]. In addition, the Kd at GTP-binding protein 4 was > 30 µM (inactive); in assay [6], 41.8 µM (active); in assay [7], > 30 µM (inactive); in assay [8], > 30 µM (inactive); in assay [9] it was > 30 µM (inactive); at ADP/ATP translocase 2, > 30 µM (inactive). Also, in assay [10], the Kd is > 30 µM (inactive).

Turning to `C[C@@H]1CN(Cc2ccc(F)cc2)[C@@H](C)CN1C(=O)c1cc2c(C(=O)C(=O)N(C)C)cn(C)c2cc1Cl` [TALMAPIMOD], the Kd (in assay [1]; in assay [2]; in assay [3]; at Wee1-like protein kinase; in [4]; in assay [5]) was > 30 µM (inactive) in each case. Moreover, the Kd (on GTP-binding protein 4; in assay [6]; in assay [7]; in [8]; in assay [9]; at ADP/ATP translocase 2) was > 30 µM (inactive) throughout. Moreover, in assay [10], the Kd was > 30 µM (inactive).

Turning to `Cn1cc(-c2ccc(F)c(C(F)(F)F)c2)nc1C1CCN(c2ncnc3[nH]ncc23)CC1` [LY-2584702], the Kd (in assay [1]; in assay [2]; in [3]; on Wee1-like protein kinase; in [4]; in [5]) was > 30 µM (inactive) in each case. Also, the Kd (at GTP-binding protein 4; in assay [6]; in [7]; in assay [8]; in [9]; on ADP/ATP translocase 2) was > 30 µM (inactive) in each case. The Kd in assay [10] is > 30 µM (inactive).

`Cc1cc2c(F)c(Oc3ncnn4cc(OC[C@@H](C)OC(=O)[C@H](C)N)c(C)c34)ccc2[nH]1` [BRIVANIB ALANINATE]: the dissociation constant Kd was 8.44 µM (active) in [1]; 46.2 µM (active) in [2]; > 30 µM (inactive) in [3]; > 30 µM (inactive) at Wee1-like protein kinase; > 30 µM (inactive) in assay [4]; > 30 µM (inactive) in assay [5]. Moreover, the Kd (at GTP-binding protein 4; in assay [6]; in [7]; in assay [8]; in assay [9]; at ADP/ATP translocase 2) was > 30 µM (inactive) in each case. In [10], the Kd is > 30 µM (inactive).

Consider `CNC(=O)c1cc(Oc2ccc(NC(=O)Nc3ccc(Cl)c(C(F)(F)F)c3)c(F)c2)ccn1` [REGORAFENIB], for which the Kd (in assay [1]; in [2]; in [3]; on Wee1-like protein kinase; in assay [4]; in assay [5]) was > 30 µM (inactive) in each case. Further, the Kd (at GTP-binding protein 4; in assay [6]; in [7]; in assay [8]; in assay [9]; at ADP/ATP translocase 2) was > 30 µM (inactive) in each case. In addition, the Kd in [10] is > 30 µM (inactive).

Regarding `COC(=O)N[C@@H](C)CNc1nccc(-c2cn(C(C)C)nc2-c2cc(Cl)cc(NS(C)(=O)=O)c2F)n1` [ENCORAFENIB], the Kd (in assay [1]; in [2]; in assay [3]; at Wee1-like protein kinase; in assay [4]; in assay [5]) was > 30 µM (inactive) in each case. The Kd (at GTP-binding protein 4; in assay [6]; in assay [7]; in assay [8]; in assay [9]; on ADP/ATP translocase 2) was > 30 µM (inactive) throughout. In addition, the Kd in assay [10] was > 30 µM (inactive).

For `Cc1c(F)cc(C(=O)NC2CC2)cc1-c1ccc(C(=O)NCC(C)(C)C)cn1` [LOSMAPIMOD], the Kd (in assay [1]; in [2]; in [3]; at Wee1-like protein kinase; in assay [4]; in assay [5]) was > 30 µM (inactive) throughout. Also, the Kd (on GTP-binding protein 4; in [6]; in assay [7]; in [8]; in assay [9]; on ADP/ATP translocase 2) was > 30 µM (inactive) each time. Also, the Kd in assay [10] was > 30 µM (inactive).

By Kd is commonly meant the equilibrium constant for the complex coming apart.

Values taken from ChEMBL document CHEMBL3991601, “The target landscape of clinical kinase drugs” (Science, 2017).
